Marks after values point to notes of the source that are not given here.

For data set [1] the following is noted: ref Wetmore et al. (2012); cited from earlier work.
On the set-up of data set [2]: method as in U.S. EPA 2012. The settings on record: EPI Suite, experimental preferred over modeled; ref U.S. EPA 2012; cited from earlier work.
Data set [3] can be described thus: PBK model first-order kinetic parameters fitted to in vivo ADME data. Details: species or system rat. To be noted: PBK model parameter.
On the set-up of data set [4]: method as in EFSA 2009. The settings on record: 24 h after dosing; ref EFSA 2009; cited from earlier work.
A further data set concerns NCI-H295R cells. The data set can be described thus: H295R steroidogenesis assay. Type of data set: cell-based, human. In a few lines: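 Human adrenocortical NCI-H295R cells exposed 48 h to compounds in 2-fold dilutions from 0.8 to 50 μM (0.1% DMSO), three independent experiments. Ten steroid hormones in medium measured by LC-MS/MS and normalized to solvent controls; viability checked by MTT.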

A further data set relates to pregnant dams and pups. To be noted: ref EFSA's Draft Assessment Reports (DARs); cited from earlier work.

For the compound `C=CCOC(Cn1ccnc1)c1ccc(Cl)cc1Cl` (stereo not shown) [Imazalil, imazalil], the “Unbound plasma fraction (%)” value in data set [1] was 4.8^g %. For the same compound, the “log Kow” value in data set [2] is recorded as 3.82. In addition, in data set [3], the “Fecal excretion rate from gut (L/h) KFeces” value came out at 0.5 L/h, the “Portal GI absorption rate into liver (L/h) KAS” value is on record as 1 L/h and the “Urine excretion rate from kidney (L/h) KUrine” value came to 0.53 L/h. Moreover, the “Number of metabolites discovered in urine and feces” value in data set [4] is reported as “at least 25”. For the same compound, the “Effect on androgen (steroid) synthesis, in words” value in the data set with NCI-H295R cells (H295R steroidogenesis assay) is listed as “inhibited testosterone synthesis”. Also, the IC20 with NCI-H295R cells (Homo sapiens, NCI-H295R, read-out: Testosterone inhibition (IC20 µM)) is 500 nM. Also, in the data set on NCI-H295R cells (multiple contrast tests), the “Androstendione, LOEC” value came to 0.8 µM; the “Corticosterone, LOEC” value is 0.8 µM; the “Cortisol, LOEC” value was determined as 0.8 µM; the “DHEA, LOEC” value is 0.8 µM. Also, in the data set on NCI-H295R cells (multiple contrast tests), the “Estradiol, LOEC” value was found to be 0.8 µM; the “OH-Progesterone, LOEC” value stood at 0.8 µM; the “Progesterone, LOEC” value is on record as 0.8 µM; the “Testosterone, lowest observed effect concentration (LOEC)” value amounted to 0.8 µM. Also, in the data set with pregnant dams and pups, the Critical toxicity entry is listed as “Increased duration of gestation , effects on pups/fetuses related to maternal toxicity”; the “LOAEL (mg/kg bw)” value is 80 mg/kg bw; the “NOAEL (mg/kg bw)” value is listed as 20 mg/kg bw.

The term IC20 denotes the concentration at which the effect reaches the 20% level.
